# Measurements taken from patent US20240327393A1 (SIRONAX LTD., priority 2021, published 2024).
# Test system: HT-1080 (ATCC, CCL-121) cells
# Assay: HT-1080 cell viability assay with ferroptosis inducer RSL3 (Cell Titer-Glo)
# Assay type: cell-based
# Conditions: Homo sapiens; HT-1080 cells treated with RSL3; 3-fold, 10-point dilution, 1.1 μM highest concentration; Table 2; read-out: EC50 (nM), ferroptosis inhibitory activity
# Method in brief: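 HT-1080 cells (6000 per well) were cultured overnight at 37 °C, then co-treated with RSL3 and compound in a 3-fold, 10-point series topping at 1.1 μM. Viability was read by CellTiter-Glo luminescence and normalized to untreated controls. EC50 came from a sigmoidal non-linear regression fit.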
row,Structure (SMILES),EC50 [nM]
1,"CCN1CCc2cc(Nc3ccccc3)ccc2C1 [Compound 105, 2-ethyl-N-phenyl-1,2,3,4-tetrahydroisoquinolin-6-amine]",0.1 to 100
2,"CN1Cc2cc(Nc3ccc(N4CCC(C(F)(F)F)CC4)cc3)cnc2C1=O [Compound 194, 6-methyl-3-((4-(4-(trifluoromethyl)piperidin-1-yl)phenyl)amino)-5,6-dihydro-7H-pyrrolo[3,4-b]pyridin-7-one]",0.1 to 100
3,"CCn1c(=O)oc2ccc(Nc3ccc(N4CCC(C(F)(F)F)CC4)cc3)cc21 [Compound 392, 3-ethyl-5-((4-(4-(trifluoromethyl)piperidin-1-yl)phenyl)amino) benzo[d]oxazol-2(3H)-one]",0.1 to 100
4,"COc1cc(Nc2ccc3c(c2)OCC(=O)N3)cnc1N1CCC(C(F)(F)F)CC1 [Compound 131, 7-((5-methoxy-6-(4-(trifluoromethyl)piperidin-1-yl)pyridin-3-yl)amino)-2H-benzo[b][1,4]oxazin-3(4H)-one]",0.1 to 100
5,"COC1(C(F)(F)F)CCN(c2ccc(Nc3ccc4c(c3)OCC(=O)N4C)c(C)c2)CC1 [Compound 129, 7-((4-(4-methoxy-4-(trifluoromethyl)piperidin-1-yl)-2-methylphenyl)amino)-4-methyl-2H-benzo[b][1,4]oxazin-3(4H)-one]",0.1 to 100
6,"CN1C(=O)COc2cc(Nc3ccc4c(c3)CCC4(C)C)ccc21 [Compound 42, 7-((1,1-dimethyl-2,3-dihydro-1H-inden-5-yl)amino)-4-methyl-2H-benzo[b][1,4]o xazin-3(4H)-one]",0.1 to 100
7,"Cc1cc(Nc2ccc3c(c2)OCC(=O)N3)cnc1N1C[C@H](C)O[C@@H](C)C1 (stereo in doubt) [Compound 152, 7-((6-(2,6-dimethylmorpholino)-5-methylpyridin-3-yl)amino)-2H-benzo[b][1,4]oxazin-3(4H)-one]",100 to 1000
8,"COC1(C(F)(F)F)CCN(c2ccc(Nc3ccc4oc(=O)n(C)c4c3)cc2)CC1 [Compound 390, 5-((4-(4-methoxy-4-(trifluoromethyl)piperidin-1-yl)phenyl)amino)-3-methylbenzo[d]oxazol-2(3H)-one]",0.1 to 100
9,"CC1CCN(c2ccc(Nc3ccc4c(c3)CN(CC3CC3)C4=O)cc2)CC1 [Compound 184, 2-(cyclopropylmethyl)-5-((4-(4-methylpiperidin-1-yl)phenyl)amino) isoindolin-1-one]",0.1 to 100
10,"NC(=O)CCCN1C(=O)COc2cc(Nc3ccc(N4CCC(C(F)(F)F)CC4)cc3)ccc21 [Compound 46, 4-(3-oxo-7-((4-(4-(trifluoromethyl)piperidin-1-yl)phenyl)amino)-2,3-dihydro-4H-benzo[b][1,4]oxazin-4-yl)butanamide]",0.1 to 100
11,"CC1CN(c2ccc3cc(Nc4ccc5c(c4)OCC(=O)N5C)ccc3c2)CC(C)O1 (stereo not drawn) [Compound 71, 7-((6-(2,6-dimethylmorpholino)naphthalen-2-yl)amino)-4-methyl-2H-benzo[b][1,4]oxazin-3(4H)-one]",0.1 to 100
12,"COc1cc(N2CCC(C(F)(F)F)CC2)ncc1Nc1ccc2c(c1)n(C)c(=O)n2C [Compound 380, 5-((4-methoxy-6-(4-(trifluoromethyl)piperidin-1-yl)pyridin-3-yl)amino)-1,3-dimethyl-1,3-dihydro-2H-benzo[d]imidazol-2-one]",0.1 to 100
13,"COCCN1C(=O)COc2cc(Nc3ccc(N4CC(C)OC(C)C4)cc3)ccc21 (stereo not drawn) [Compound 95, 7-((4-(2,6-dimethylmorpholino)phenyl)amino)-4-(2-methoxyethyl)-2H-benzo[b][1,4]oxazin-3(4H)-one]",0.1 to 100
14,CC1CN(c2ccc(Nc3ccc4c(c3)nc(N)n4C)cc2)CC(C)O1 (stereo not drawn) [Compound 435],0.1 to 100

# Now from value to compound:
row,EC50 [nM],Structure (SMILES)
1,0.1 to 100,COCCn1c(=O)oc2ccc(Nc3ccc(N4CCC(C(F)(F)F)CC4)cc3)cc21 [Compound 393]
2,0.1 to 100,"Cn1c(=O)oc2ccc(Nc3ccc(N4CCC(CF)CC4)cc3)cc21 [Compound 391, 5-((4-(4-(fluoromethyl)piperidin-1-yl)phenyl)amino)-3-methylbenzo[d]oxazol-2(3H)-one]"
3,0.1 to 100,"Cn1c(NCC2CC2)cc2ccc(Nc3ccc(N4CCC(C(F)(F)F)CC4)cc3)cc21 [Compound 396, N2-(cyclopropylmethyl)-1-methyl-N6-(4-(4-(trifluoromethyl)piperidin-1-yl)phenyl)-1H-indole-2,6-diamine]"
4,0.1 to 100,"CN1Cc2cc(Nc3ccc(N4CC5(CCCC5)C4)cc3)ccc2C1=O [Compound 246, 5-((4-(2-azaspiro[3.4]octan-2-yl)phenyl)amino)-2-methylisoindolin-1-one]"
5,0.1 to 100,"CC1CN(c2ccc(Nc3ccc4c(c3)c(C(N)=O)cn4C)cc2)CC(C)O1 (stereo not drawn) [Compound 425, 5-((4-(2,6-dimethylmorpholino)phenyl)amino)-1-methyl-1H-indole-3-carboxamide]"
6,0.1 to 100,"Cn1cnc(N2Cc3cc(Nc4ccc(N5CCC(C(F)(F)F)CC5)cc4)ccc3C2=O)c1 [Compound 206, 2-(1-methyl-1H-imidazol-4-yl)-5-((4-(4-(trifluoromethyl)piperidin-1-yl)phenyl)amino)isoindolin-1-one]"
7,0.1 to 100,"Cn1c(=O)c(=O)n(C)c2cc(Nc3ccc(N4CCC(C(F)(F)F)CC4)cc3)ccc21 [Compound 110, 1,4-dimethyl-6-((4-(4-(trifluoromethyl)piperidin-1-yl)phenyl)amino)-1,4-dihydroquinoxaline-2,3-dione]"
8,0.1 to 100,"FC(F)(F)C1CCN(c2ccc(Nc3ccc4nc[nH]c4c3)cc2)CC1 [Compound 357, N-(4-(4-(trifluoromethyl)piperidin-1-yl)phenyl)-1H-benzo[d]imidazol-6-amine]"
9,0.1 to 100,"Cn1c(=O)n(C)c2cc(Nc3ccc(N4CCC(F)CC4)cc3)ccc21 [Compound 299, 5-((4-(4-fluoropiperidin-1-yl)phenyl)amino)-1,3-dimethyl-1,3-dihydro-2H-benzo[d]imidazol-2-one]"
10,0.1 to 100,"O=C1c2ccc(Nc3ccc(N4CCC(C(F)(F)F)CC4)cc3)cc2CN1CC=C(F)F [Compound 215, 2-(3,3-difluoroallyl)-5-((4-(4-(trifluoromethyl)piperidin-1-yl)phenyl)amino)isoindolin-1-one]"
11,0.1 to 100,"CN1CCc2cc(Nc3ccc4c(c3)n(C)c(=O)n4C)ccc21 [Compound 289, 1,3-dimethyl-5-((1-methylindolin-5-yl)amino)-1,3-dihydro-2H-benzo[d]imidazol-2-one]"
12,0.1 to 100,"CC1CCN(c2ccc(Nc3ccc4c(c3)CN(C)C4=O)cc2)CC1 [Compound 174, 2-methyl-5-((4-(4-methylpiperidin-1-yl)phenyl)amino)isoindolin-1-one]"
13,0.1 to 100,"Cc1nc2ccc(Nc3ccc(N4CCC(C)CC4)cc3)cc2o1 [Compound 339, 2-methyl-N-(4-(4-methylpiperidin-1-yl)phenyl)benzo[d]oxazol-6-amine]"

# Same assay, conditions: Homo sapiens; HT-1080 cells treated with RSL3; 3-fold, 10-point dilution, 1.1 μM highest concentration; Table 3; read-out: EC50 (nM), ferroptosis inhibitory activity
row,Structure (SMILES),EC50 [nM]
1,"O=C1COc2cc(Nc3ccc(N4CCC(O)(C(F)(F)F)CC4)cc3)ccc2N1 [Compound 510, 7-((4-(4-hydroxy-4-(trifluoromethyl)piperidin-1-yl)phenyl)amino)-2H-benzo[b][1,4]oxazin-3(4H)-one]",0.1 to 100
2,"CC1CN(c2ccc(Nc3ccc4c(c3)N(C)C(=O)C4(C)C)cc2)CC(C)O1 (stereo not drawn) [Compound 449, 6-((4-(2,6-dimethylmorpholino)phenyl)amino)-1,3,3-trimethylindolin-2-one]",0.1 to 100
3,"Cc1cc(N2CCC(O)(C(F)(F)F)CC2)ccc1Nc1cc(C)c2c(c1)OCC(=O)N2 [Compound 511, 7-((4-(4-hydroxy-4-(trifluoromethyl)piperidin-1-yl)-2-methylphenyl)amino)-5-methyl-2H-benzo[b][1,4]oxazin-3(4H)-one]",0.1 to 100
4,"CCN(CC)c1ccc(Nc2ccc3c(c2)OCC(=O)N3)c(C)c1 [Compound 501, 7-((4-(diethylamino)-2-methylphenyl)amino)-2H-benzo[b][1,4]oxazin-3(4H)-one]",0.1 to 100
5,"Cc1cc(N2CCC(C(F)(F)F)CC2)ccc1Nc1ccc2c(c1)NC(=O)C2(C)C [Compound 527, 3,3-dimethyl-6-((2-methyl-4-(4-(trifluoromethyl)piperidin-1-yl)phenyl)amino)indolin-2-one]",0.1 to 100
6,"Cc1cc(N2CCCCC2)ccc1Nc1ccc2c(c1)OCC(=O)N2 [Compound 470, 7-((2-methyl-4-(piperidin-1-yl)phenyl)amino)-2H-benzo[b][1,4]oxazin-3(4H)-one]",0.1 to 100
7,"O=C1COc2cc(Nc3ccc(N4C5CCC4CC5)cc3)ccc2N1 [Compound 549, 7-((4-(7-azabicyclo[2.2.1]heptan-7-yl)phenyl)amino)-2H-benzo[b][1,4]oxazin-3(4H)-one]",0.1 to 100
8,"Cc1cc(N2CCC(C(F)(F)F)CC2)ccc1Nc1ccc2c(c1)OC(C)C(=O)N2 (stereo not drawn) [Compound 482, 2-methyl-7-((2-methyl-4-(4-(trifluoromethyl)piperidin-1-yl)phenyl)amino)-2H-benzo[b][1,4]oxazin-3(4H)-one]",0.1 to 100
9,"Cc1cc(N2CCC(O)(C(F)(F)F)CC2)ccc1Nc1ccc2c(c1)OCCC(=O)N2 [Compound 555, 8-((4-(4-hydroxy-4-(trifluoromethyl)piperidin-1-yl)-2-methylphenyl)amino)-2,3-dihydrobenzo[b][1,4]oxazepin-4(5H)-one]",0.1 to 100

# Further lines, results first:
row,EC50 [nM],Structure (SMILES)
1,0.1 to 100,"Cc1cc(NC(C)(C)C)ccc1Nc1ccc2c(c1)OCC(=O)N2 [Compound 634, 7-((4-(tert-butylamino)-2-methylphenyl)amino)-2H-benzo[b][1,4]oxazin-3(4H)-one]"
2,0.1 to 100,"CNCc1cnc2cc(Nc3ccc(N4CCC(C(F)(F)F)CC4)cc3C)ccn12 [Compound 609, N-(2-methyl-4-(4-(trifluoromethyl)piperidin-1-yl)phenyl)-3-((methylamino)methyl)imidazo[1,2-a]pyridin-7-amine]"
3,0.1 to 100,"O=C1CCOc2cc(Nc3ccc(N4CCC(C(F)(F)F)CC4)cc3)ccc2N1 [Compound 534, 8-((4-(4-(trifluoromethyl)piperidin-1-yl)phenyl)amino)-2,3-dihydrobenzo[b][1,4]oxazepin-4(5H)-one]"
